Results as given in ChEMBL document CHEMBL3217421, “Truncated militarinone fragments identified by total chemical synthesis induce neurite outgrowth” (Medchemcomm, 2013).
Calls of active or inactive are those of the source. The calls are words filed in the database; no cut-off is given here.

Experiments:
Format in all cases: functional, cell-based
PC-12 [1] = test: Neuritogenic activity in rat PC12 cells assessed as induction of neurite outgrowth at 40 uM after 3 days using Giemsa staining by microscopic analysis
PC-12 [2] = test: Neuritogenic activity in rat PC12 cells assessed as induction of neurite outgrowth at 1 uM after 3 days using Giemsa staining by microscopic analysis
PC-12 [3] = test: Neuritogenic activity in rat PC12 cells assessed as induction of neurite outgrowth at 20 uM after 3 days using Giemsa staining by microscopic analysis in presence of ERK1/2 inhibitor PD98059
PC-12 [4] = test: Neuritogenic activity in rat PC12 cells assessed as induction of neurite outgrowth at 2 uM after 3 days using Giemsa staining by microscopic analysis
PC-12 [5] = test: Neuritogenic activity in rat PC12 cells assessed as induction of neurite outgrowth at 500 nM after 3 days using Giemsa staining by microscopic analysis
PC-12 [6] = test: Neuritogenic activity in rat PC12 cells assessed as induction of neurite outgrowth at 20 uM after 3 days using Giemsa staining by microscopic analysis

CCOC(=O)c1c(OC)c(-c2ccc(NC(=O)OC(C)(C)C)cc2)c[nH]c1=O
Activity (PC-12 [1]): inactive

CCOC(=O)c1c(OC)c(-c2ccncc2)c[nH]c1=O
Activity (PC-12 [1]): inactive

CCOC(=O)c1c(OC)c(-c2ccc(F)cc2)c[nH]c1=O
Activity (PC-12 [1]): inactive

CCOC(=O)c1c(OC)c(-c2ccc(N)cc2)c[nH]c1=O
Activity (PC-12 [1]): inactive

CCOC(=O)c1c(OC)c(-c2ccc(O)c(OC)c2)c[nH]c1=O
Activity (PC-12 [2]): Active
Activity (PC-12 [3]): inactive
Activity (PC-12 [4]): Active
Activity (PC-12 [5]): inactive
Activity (PC-12 [6]): Active

CCOC(=O)c1c(O)c(-c2ccc(O)cc2)c[nH]c1=O
Activity (PC-12 [6]): Active

CCOC(=O)c1c(OC)c(-c2ccc(C(C)(C)C)cc2)c[nH]c1=O
Activity (PC-12 [1]): inactive

COc1cc(-c2cccnc2)ccc1O
Activity (PC-12 [6]): inactive

CCOC(=O)c1c(OC)c(-c2ccc(OC)cc2)c[nH]c1=O
Activity (PC-12 [6]): inactive

CCOC(=O)c1c(OC)c(-c2ccccc2)c[nH]c1=O
Activity (PC-12 [1]): inactive

CCOC(=O)c1c(OC)c(-c2ccc(OC)cc2)cn(C)c1=O
Activity (PC-12 [6]): inactive

CCOC(=O)c1c(OC)c(-c2cccnc2)c[nH]c1=O
Activity (PC-12 [1]): inactive

CCOC(=O)c1c(OC)c(-c2ccc(O)cc2)cn(C)c1=O
Activity (PC-12 [6]): Active

CCOC(=O)c1c(OC)c(-c2ccc(O)cc2)c[nH]c1=O
Activity (PC-12 [6]): Active
